Active and inactive are the calls of the source. No cut-off for these calls is given here.
Columns and labels:
Assay type in all cases: functional, organism-based
[1] = system: Arabidopsis thaliana; assay: Growth inhibition of Arabidopsis thaliana ecotype Rld-2 assessed as decrease in hypocotyl length
[2] = system: Arabidopsis thaliana; assay: Growth inhibition of Arabidopsis thaliana ecotype Br-0 assessed as inhibition of germination
[3] = system: Arabidopsis thaliana; assay: Growth inhibition of Arabidopsis thaliana ecotype Columbia assessed as inhibition of germination at 100 uM
[4] = system: Arabidopsis thaliana; assay: Growth inhibition of Arabidopsis thaliana ecotype Ull2-3 assessed as inhibition of germination
[5] = system: Arabidopsis thaliana; assay: Growth inhibition of Arabidopsis thaliana ecotype Columbia assessed as inhibition of germination
[6] = system: Arabidopsis thaliana; assay: Growth inhibition of Arabidopsis thaliana ecotype CSH-1 assessed as inhibition of germination
[7] = system: Arabidopsis thaliana; assay: Growth inhibition of Arabidopsis thaliana ecotype LIN assessed as inhibition of germination
[8] = system: Arabidopsis thaliana; assay: Growth inhibition of Arabidopsis thaliana ecotype Pog-0 assessed as inhibition of germination
[9] = system: Arabidopsis thaliana; assay: Growth inhibition of Arabidopsis thaliana ecotype Kyoto assessed as inhibition of germination
[10] = system: Arabidopsis thaliana; assay: Growth inhibition of Arabidopsis thaliana ecotype Columbia assessed as decrease in root length
[11] = system: Arabidopsis thaliana; assay: Growth inhibition of Arabidopsis thaliana ecotype RRS7 assessed as decrease in root length
[12] = system: Arabidopsis thaliana; assay: Growth inhibition of Arabidopsis thaliana ecotype Ra-0 assessed as inhibition of germination
[13] = system: Arabidopsis thaliana; assay: Growth inhibition of Arabidopsis thaliana ecotype KZ1 assessed as inhibition of germination
[14] = system: Arabidopsis thaliana; assay: Growth inhibition of Arabidopsis thaliana ecotype Co assessed as inhibition of germination

CCOC(=O)N1CCN(c2cc(C)c3ccc(Cl)cc3n2)CC1 [POLARAZINE] was tested, and the IC50 [1] was 13 µM.
For O=[N+]([O-])c1ccc(CN2CCCCC2c2cccnc2)cc1 (stereo not drawn), the IC50 [2] was 3 µM and the “growth inhibition (GI)” value [3] was “inactive”.
For OC(c1ccccc1)(c1ccccc1)c1c[nH]cn1, the “growth inhibition (GI)” value [3] was “inactive” and the IC50 [4] was 17 µM.
Molecule CCOc1ccc(S(=O)(=O)NCc2ccccn2)c2ccccc12 [PYRABACTIN B] has an IC50 [5] of 8.4 µM and an IC50 [6] of 2.5 µM.
O=C(c1ccccc1Cl)c1coc2ccccc2c1=O was tested, and the IC50 [7] was ≤ 14 µM.
With COc1ccc2occ(C(=O)c3ccccc3Cl)c(=O)c2c1 the IC50 [8] was 3 µM.
In the case of CCN(CC)c1ccc(C(=O)c2ccccc2C(=O)O)c(O)c1, the IC50 [9] is reported as 12.5 µM and the “growth inhibition (GI)” value [3] is reported as “inactive”.
Cc1ccc(C(C)C)c(OCC(=O)N/N=C/c2cccnc2)c1 [CHUBOXYPYR] showed an IC50 [10] of 80 µM and an IC50 [11] of 22 µM.
CC1CCC(C(C)C)C(=O)/C1=C\c1ccc(N)cc1 (stereo not drawn) was tested, and the “growth inhibition (GI)” value [3] was “inactive” and the IC50 [12] was 7 µM.
O=S(=O)(NCc1ccccn1)c1ccc(Br)c2ccccc12 [PYRABACTIN A] gave an IC50 [13] of 2.2 µM.
With CCc1ccc(CN2CCCCC2c2cccnc2)cc1 (stereo not drawn) the “growth inhibition (GI)” value [3] was “inactive” and the IC50 [14] was 10 µM.

From ChEMBL document CHEMBL1240331, “Chemical genetic interrogation of natural variation uncovers a molecule that is glycoactivated” (Nat Chem Biol, 2007)
